According to ChEMBL document CHEMBL1124209, “Phosphonoformate and phosphonoacetate derivatives of 5-substituted 2'-deoxyuridines: synthesis and antiviral activity” (1988):
≈ marks a conversion by molar mass, not a printed value.

Key:
Assay type in all cases: functional
[1] = tested on: Human alphaherpesvirus 1; assay: Minimum inhibitory concentration causing 25% inhibition of cytopathic effect induced by herpes simplex virus (HSV)-1 (K979) in vero cells.
[2] = tested on: Human alphaherpesvirus 1; assay: Minimum inhibitory concentration causing 25% inhibition of cytopathic effect induced by Herpes simplex virus(HSV) -1 (thymidine kinase deficient) in vero cells
[3] = tested on: Human alphaherpesvirus 1; assay: Minimum inhibitory concentration causing 25% inhibition of cytopathic effect induced by Herpes simplex virus-1 (K979) in HEp-2 cells
[4] = species on record: Oryctolagus cuniculus; assay: Minimum cytotoxic concentration causing toxic effects on uninfected cells in rabbit
[5] = tested on: Human alphaherpesvirus 2; assay: Minimum inhibitory concentration causing 25% inhibition of cytopathic effect induced by Herpes simplex virus(HSV) -2 (thymidine kinase deficient) in HEp-2 cells
[6] = tested on: Human alphaherpesvirus 1; assay: Minimum inhibitory concentration causing 25% inhibition cytopathic effect induced by Herpes simplex virus(HSV) -1 (thymidine kinase deficient) in HEp-2 cells
[7] = tested on: Human alphaherpesvirus 1; assay: Minimum inhibitory concentration causing 25% inhibition of cytopathic effect induced by Herpes simplex virus-1 (Brand) in vero cells
[8] = tested on: Human alphaherpesvirus 1; assay: Minimum inhibitory concentration causing 25% inhibition cytopathic effect induced by Herpes simplex virus-1 (Brand) in HEp-2 cells
[9] = tested on: Human alphaherpesvirus 2; assay: Minimum inhibitory concentration causing 25% inhibition cytopathic effect induced by Herpes simplex virus(HSV) -2 (thymidine kinase deficient) in vero cells
[10] = tested on: Human alphaherpesvirus 1; assay: Cumulative mortality in percent of HSV-1 infected mice, after peroral administration of 5 mg/kg of compound; settings: route oral
[11] = tested on: Human alphaherpesvirus 1; assay: Cumulative mortality in percent of HSV-1 infected mice, after intraperitoneal administration of 1 mg/kg of compound
[12] = tested on: Human alphaherpesvirus 1; assay: Cumulative mortality in percent of HSV-1 infected mice, after peroral administration of 1 mg/kg of compound; settings: route oral
[13] = tested on: Human alphaherpesvirus 1; assay: Mean survival time in HSV-1 infected mice, after intraperitoneal administration of 5 mg/kg of compound
[14] = tested on: Human alphaherpesvirus 1; assay: Cumulative mortality in percent of HSV-1 infected mice, after intraperitoneal administration of 0.5 mg/kg of compound
[15] = tested on: Human alphaherpesvirus 1; assay: Cumulative mortality in percent of HSV-1 infected mice, after peroral administration of 10 mg/kg of compound; settings: route oral
[16] = tested on: Human alphaherpesvirus 1; assay: Mean survival time in HSV-1 infected mice, after intraperitoneal administration of 0.5 mg/kg of compound
[17] = tested on: Human alphaherpesvirus 1; assay: Mean survival time in HSV-1 infected mice, after peroral administration of 10 mg/kg of compound; settings: route oral
[18] = tested on: Human alphaherpesvirus 1; assay: Cumulative mortality in percent of HSV-1 infected mice, after intraperitoneal administration of 5 mg/kg of compound
[19] = tested on: Human alphaherpesvirus 1; assay: Minimum inhibitory concentration causing 25% inhibition of cytopathic effect induced by Herpes simplex virus(HSV) -1 (thymidine kinase deficient) in HEp-2 cells
[20] = tested on: Human alphaherpesvirus 1; assay: Mean survival time in HSV-1 infected mice, after peroral administration of 1 mg/kg of compound; settings: route oral
[21] = tested on: Human alphaherpesvirus 1; assay: Mean survival time in HSV-1 infected mice, after intraperitoneal administration of 1 mg/kg of compound
[22] = tested on: Human alphaherpesvirus 1; assay: Mean survival time in HSV-1 infected mice, after peroral administration of 5 mg/kg of compound; settings: route oral
[23] = tested on: Mus musculus; assay: Mean duration of lesions in HSV-1 infected mice, after administration of 0.1 % of compound intracutaneously
[24] = tested on: Mus musculus; assay: Cumulative lesions in HSV-1 infected mice, after administration of 0.1 % of compound intracutaneously
[25] = tested on: Human alphaherpesvirus 2; assay: Minimum inhibitory concentration causing 25% inhibition of cytopathic effect induced by Herpes simplex virus(HSV) -2 (thymidine kinase deficient) in vero cells
[26] = tested on: Mus musculus; assay: Mean duration of lesions in HSV-1 infected mice, after administration of 0.3 % of compound intracutaneously
[27] = tested on: Mus musculus; assay: Cumulative lesions in HSV-1 infected mice, after administration of 0.3 % of compound intracutaneously

| Structure (SMILES) | MIC [1] | MIC [2] | MIC [3] | MTC [4] | MIC [5] | MIC [7] | MIC [8] | MIC [9] | CMP [10] | CMP [11] | CMP [12] | MST [13] | CMP [14] | CMP [15] | MST [16] | MST [17] | CMP [18] | MIC [19] | MST [20] | MST [21] | other results |
| --- | --- | --- | --- | --- | --- | --- | --- | --- | --- | --- | --- | --- | --- | --- | --- | --- | --- | --- | --- | --- | --- |
| CCOC(=O)CP(=O)(OC)OC[C@H]1O[C@@H](n2cc(I)c(=O)[nH]c2=O)C[C@@H]1O (stereo partly specified) | 57.9 µM (≈ 30 µg/mL) | 57.9 µM (≈ 30 µg/mL) | 57.9 µM (≈ 30 µg/mL) | 193 µM | 193 µM (≈ 100 µg/mL) | 1.9 µM (≈ 0.985 µg/mL) | 5.8 µM (≈ 3.01 µg/mL) | > 193 µM |  |  |  |  |  |  |  |  |  |  |  |  | MIC [6]: 1.9 µM (≈ 0.985 µg/mL) |
| COP(=O)(CC(=O)OC[C@H]1O[C@@H](n2cc(CCCl)c(=O)[nH]c2=O)C[C@@H]1O)OC | > 227 µM | 227 µM (≈ 100 µg/mL) | > 227 µM | 749 µM | > 227 µM | 6.8 µM (≈ 3 µg/mL) | 6.8 µM (≈ 3 µg/mL) | > 227 µM | 83 | 75 | 58 | 19.2 days | 67 | 75 | 13.3 days | 12.2 days | 8 | > 227 µM | 13.5 days | 13 days | MST [22]: 11.2 days |
| CCOC(=O)P(=O)(O)OC[C@H]1O[C@@H](n2cc(CCCl)c(=O)[nH]c2=O)C[C@@H]1O | > 234 µM | 70.3 µM (≈ 30 µg/mL) | 234 µM (≈ 99.9 µg/mL) | >=773 uM | > 234 µM | 23.4 µM (≈ 9.99 µg/mL) | 23.4 µM (≈ 9.99 µg/mL) |  | 75 | 33 | 92 | 20 days | 58 | 50 | 13.8 days | 15.3 days | 0 | > 234 µM | 10.1 days | 16.5 days | MDL [23]: 6.7 days; lesions [24]: 80; MIC [25]: 234 µM (≈ 99.9 µg/mL); MST [22]: 11.9 days |
| O=C(O)CP(=O)(O)OC[C@H]1O[C@@H](n2cc(CCCl)c(=O)[nH]c2=O)C[C@@H]1O | 232 µM (≈ 95.8 µg/mL) | 23.2 µM (≈ 9.58 µg/mL) | 69.6 µM (≈ 28.7 µg/mL) | 766 µM | 232 µM (≈ 95.8 µg/mL) | 2.3 µM (≈ 0.949 µg/mL) | 2.3 µM (≈ 0.949 µg/mL) | > 232 µM | 92 | 58 | 100 | 17.3 days | 50 | 50 | 14.2 days | 15.3 days | 25 | 23.2 µM (≈ 9.58 µg/mL) | 8.6 days | 14.1 days | MDL [23]: 5.3 days; lesions [24]: 60; MST [22]: 11.2 days |
| O=C(CP(=O)(O)O)OC[C@H]1O[C@@H](n2cc(CCCl)c(=O)[nH]c2=O)C[C@@H]1O | > 242 µM | 72.7 µM (≈ 30 µg/mL) | > 242 µM | 800 µM | 242 µM (≈ 99.9 µg/mL) | 24.2 µM (≈ 9.99 µg/mL) | 24.2 µM (≈ 9.99 µg/mL) |  | 50 | 33 | 67 | 18.3 days | 75 | 42 | 12.2 days | 16.3 days | 17 | 242 µM (≈ 99.9 µg/mL) | 11.8 days | 16 days | MIC [25]: 72.7 µM (≈ 30 µg/mL); MDL [26]: 2.4 days; lesions [27]: 40; MST [22]: 15.3 days |
| CCOC(=O)CP(=O)(OC)OC[C@H]1O[C@@H](n2cc(CCCl)c(=O)[nH]c2=O)C[C@@H]1O (stereo partly specified) | > 220 µM | 66 µM (≈ 30 µg/mL) | > 220 µM | 726 µM | > 220 µM | 6.6 µM (≈ 3 µg/mL) | 66 µM (≈ 30 µg/mL) |  | 75 | 92 | 100 | 11.8 days | 58 | 67 | 13.9 days | 11.5 days | 83 | > 220 µM | 8.9 days | 11.9 days | MDL [23]: 10.6 days; lesions [24]: 83; MIC [25]: > 220 µM; MDL [26]: 6 days; lesions [27]: 58; MST [22]: 12.8 days |
| O=C(CP(=O)(O)O)O[C@H]1C[C@H](n2cc(CCCl)c(=O)[nH]c2=O)O[C@@H]1CO | 242 µM (≈ 99.9 µg/mL) | 242 µM (≈ 99.9 µg/mL) | 72.7 µM (≈ 30 µg/mL) | 800 µM | > 242 µM | 24.2 µM (≈ 9.99 µg/mL) | 72.7 µM (≈ 30 µg/mL) | > 242 µM |  |  |  |  |  |  |  |  |  | > 242 µM |  |  |  |
| CCOC(=O)P(=O)(OC)OC[C@H]1O[C@@H](n2cc(I)c(=O)[nH]c2=O)C[C@@H]1O (stereo partly specified) | 5.9 µM (≈ 2.97 µg/mL) | 19.8 µM (≈ 9.98 µg/mL) | 5.9 µM (≈ 2.97 µg/mL) | 198 µM | 5.9 µM (≈ 2.97 µg/mL) | 0.6 µM (≈ 0.303 µg/mL) | 2 µM (≈ 1.01 µg/mL) | 5.9 µM (≈ 2.97 µg/mL) |  |  |  |  |  |  |  |  |  |  |  |  | MIC [6]: 2 µM (≈ 1.01 µg/mL) |
| CCOC(=O)P(=O)(OC)OC[C@H]1O[C@@H](n2cc(CCCl)c(=O)[nH]c2=O)C[C@@H]1O (stereo partly specified) | 227 µM (≈ 100 µg/mL) | 68.1 µM (≈ 30 µg/mL) | 22.7 µM (≈ 10 µg/mL) | 749 µM | > 227 µM | 0.7 µM (≈ 0.309 µg/mL) | 0.7 µM (≈ 0.309 µg/mL) |  | 38 | 42 | 63 | 20 days | 33 | 13 | 16.7 days | 18.9 days | 0 | > 227 µM | 13.9 days | 15.6 days | MDL [23]: 3.3 days; lesions [24]: 33; MIC [25]: > 227 µM; MDL [26]: 1.4 days; lesions [27]: 17; MST [22]: 16 days |
| O=c1[nH]c(=O)n([C@H]2C[C@H](O)[C@@H](CO)O2)cc1I [IDOXURIDINE] | 2.8 µM (≈ 0.991 µg/mL) | 8.4 µM (≈ 2.97 µg/mL) | 0.8 µM (≈ 0.283 µg/mL) | 281 µM | 8.4 µM (≈ 2.97 µg/mL) | 0.3 µM (≈ 0.106 µg/mL) | 0.8 µM (≈ 0.283 µg/mL) | > 281 µM |  |  |  |  |  |  |  |  |  |  |  |  | MIC [6]: 0.8 µM (≈ 0.283 µg/mL) |
